Experiment: Specific surface area of the active substance by the BET method
Assay type: physicochemical
Conditions: peptide salt after lyophilization (or starting material)
Method: For all these examples, the inherent viscosities (IV) were measured by the conventional methods of flow time measurement, as described for example in “Pharmacopoée Européenne”, 1997, pages 17-18 (capillary tube method). Unless stated otherwise, these viscosities have been measured in chloroform at a concentration of 0.1% at 25° C. or in hexaisofluoropropanol at a concentration of 0.5% at 30° C. Where measured, the specific surface area of the active substance was determined by the so-called BET method (absorption of a nitrogen monolayer on the active substance), a method well known to a person skilled in the art.

Row | Compound | Specific surface area [m^2/g]
1 | triptorelin acetate [unmodified triptorelin acetate, reference compound] | 0.8
2 | CC(C)[C@@H]1NC(=O)[C@H](CCCCN)NC(=O)[C@@H](Cc2c[nH]c3ccccc23)NC(=O)[C@H](Cc2ccc(O)cc2)NC(=O)[C@@H](NC(=O)[C@H](N)Cc2ccc3ccccc3c2)CSSC[C@@H](C(=O)N[C@H](C(N)=O)[C@@H](C)O)NC1=O [Example 13, lanreotide acetate] | 36
3 | CC(C)[C@@H]1NC(=O)[C@H](CCCCN)NC(=O)[C@@H](Cc2c[nH]c3ccccc23)NC(=O)[C@H](Cc2ccc(O)cc2)NC(=O)[C@@H](NC(=O)[C@H](N)Cc2ccc3ccccc3c2)CSSC[C@@H](C(=O)N[C@H](C(N)=O)[C@@H](C)O)NC1=O [Example 14, lanreotide acetate] | 43
4 | CC(C)[C@@H]1NC(=O)[C@H](CCCCN)NC(=O)[C@@H](Cc2c[nH]c3ccccc23)NC(=O)[C@H](Cc2ccc(O)cc2)NC(=O)[C@@H](NC(=O)[C@H](N)Cc2ccc3ccccc3c2)CSSC[C@@H](C(=O)N[C@H](C(N)=O)[C@@H](C)O)NC1=O [modified lanreotide acetate, lanreotide acetate] | 4.4
5 | triptorelin acetate [modified triptorelin acetate] | 4.7

From patent US6475507B1, “Sustained release compositions and the process for their preparation” (priority 1997, dated 2002)
